Test results taken from patent US8835659B2, “Polysubstituted benzofurans and medicinal applications thereof” (Ikerchem, S.L., priority 2010, dated 2014).

Target: human SIRT1 (Homo sapiens (Human), UniProt Q96EB6)
Experiment: SIRT1 in vitro deacetylation assay (Fluor-de-Lys, acetylated AMC-labeled p53 peptide)
Format: biochemical
Conditions: 50 μM substrate peptide, 500 μM NAD+, 30° C., 2 h; for Emax: SIRT1 activation, read-out: Max (%), percentage of maximum activation achieved; for IC50: concentration reducing enzyme activity by 50%, read-out: IC50 (SIRT1 inhibitors); for EC1.5 (concentration raising enzyme activity by 50%): concentration required to increase the enzyme activity by 50%, read-out: EC1.5 (SIRT1 activators)
Experimental: The inhibitory activity is measured as the concentration of compound required to reduce the enzyme activity by 50% (IC50).
Activation in this assay is measured both as the concentration of compound required to increase the enzyme activity by 50% (EC1.5) as well as by the percentage of maximum activation achieved (Max %) (see, FIG. 1).
The reactions were carried out in a 96-well microplate for fluorometry in a 50 μl reaction volume. After the deacetylation reaction, Fluor-de-Lys-Developer II (BioMol. Cat. #KI-176) was added to each well to digest the deacetylated substrate, thus producing the fluorescent signal. The reaction was allowed to develop for 45 minutes at 30° C. with 5% CO2; then the fluorescent signal was measured with an excitation wavelength at 360 nm and an emission wavelength at 460 nm in a microplate-reading fluorometer (GeminiXS; Molecular Devices, Sunnyvale, Calif.). […] All experiments were performed in triplicate.

Chain of human SIRT1 (Q96EB6 whole entry): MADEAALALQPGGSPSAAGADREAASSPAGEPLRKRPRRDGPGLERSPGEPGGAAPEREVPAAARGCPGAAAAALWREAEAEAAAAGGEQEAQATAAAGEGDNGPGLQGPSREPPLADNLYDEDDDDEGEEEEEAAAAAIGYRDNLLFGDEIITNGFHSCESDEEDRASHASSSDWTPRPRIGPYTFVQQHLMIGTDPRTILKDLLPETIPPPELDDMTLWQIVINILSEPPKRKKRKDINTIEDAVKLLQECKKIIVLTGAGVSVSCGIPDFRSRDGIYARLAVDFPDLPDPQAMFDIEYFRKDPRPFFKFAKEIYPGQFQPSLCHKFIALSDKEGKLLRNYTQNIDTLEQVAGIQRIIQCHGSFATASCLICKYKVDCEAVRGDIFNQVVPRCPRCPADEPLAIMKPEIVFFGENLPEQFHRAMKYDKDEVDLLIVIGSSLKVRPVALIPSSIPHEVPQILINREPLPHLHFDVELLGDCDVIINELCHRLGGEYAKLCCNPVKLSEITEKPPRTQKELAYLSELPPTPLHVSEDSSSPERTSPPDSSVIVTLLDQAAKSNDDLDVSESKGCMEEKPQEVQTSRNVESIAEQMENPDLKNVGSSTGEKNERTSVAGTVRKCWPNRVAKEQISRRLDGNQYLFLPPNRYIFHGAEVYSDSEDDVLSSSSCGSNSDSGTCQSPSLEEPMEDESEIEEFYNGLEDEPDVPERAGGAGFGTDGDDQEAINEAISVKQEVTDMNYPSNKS

| Emax | IC50 | EC1.5 (concentration raising enzyme activity by 50%) | SMILES |
| --- | --- | --- | --- |
| 475% | – | – | Oc1ccc(C=Cc2cc(O)cc(O)c2)cc1 [Resveratrol, resveratrol, reference compound] |
| – | 22.8 µM | – | Oc1ccc(-c2coc3cc(O)cc(O)c23)cc1 [Example 15, 3-(4-hydroxyphenyl)-1-benzofuran-4,6-diol] |
| 444% | – | 3.55 nM | Oc1ccc(-c2cc3c(O)cc(O)cc3o2)cc1 [Example 9, 2-(4-hydroxyphenyl)-1-benzofuran-4,6-diol] |
| – | 36.7 µM | – | Oc1cc(O)c2cc(-c3cc(F)cc(F)c3)oc2c1 [Example 13, 2-(3,5-difluorophenyl)benzofuran-4,6-diol] |
| 407% | – | 1.32 nM | Oc1cc(O)cc(-c2cc3c(O)cc(O)cc3o2)c1 [Example 8, 2-(3,5-dihydroxyphenyl)-1-benzofuran-4,6-diol] |
| – | 274 µM | – | Oc1cc(O)c2c(-c3cc(F)cc(F)c3)coc2c1 [Example 16, 3-(3,5-difluorophenyl)-1-benzofuran-4,6-diol] |
| 130% | – | – | COc1ccc(-c2cc3c(O)cc(O)cc3o2)c(OC)n1 [Example 12, 2-(2,6-dimethoxypyridin-3-yl)benzofuran-4,6-diol] |
| – | 76.3 µM | – | Oc1cc(O)c2c(-c3cc(F)cc(F)c3)c(Br)oc2c1 [Example 20, 2-bromo-3-(3,5-difluorophenyl)benzofuran-4,6-diol] |
| – | 1.84 µM | – | Oc1cc(O)c2cc(-c3cc(O)c(O)c(O)c3)oc2c1 [Example 11, 5-(4,6-dihydroxy-1-benzofuran-2-yl)benzene-1,2,3-triol] |
| – | 192 µM | – | Oc1cc(O)c2c(-c3ccc(F)cc3)coc2c1 [Example 19, 3-(4-fluorophenyl)benzofuran-4,6-diol] |
| 279% | – | 13.5 nM | Oc1cc(O)c2cc(-c3ccc(F)cc3)oc2c1 [Example 10, 2-(4-fluorophenyl)-1-benzofuran-4,6-diol] |
| 451% | – | 11.5 nM | Oc1cc(O)cc(-c2cc3ccc(O)cc3o2)c1 [5-(6-hydroxy-1-benzofuran-2-yl)benzene-1,3-diol, reference compound] |
